Data on 16 molecules can be found in PubChem BioAssay (NCI).

Some test systems named below: KM12 colon; OVCAR-3 ovarian; SNB-75 CNS; RPMI-8226 leukemia; A498 renal; SF-295 CNS; OVCAR-8 ovarian; M14 melanoma; BT-549 breast; DU-145 prostate.
Assay in all cases: NCI-60 cell line screen, 48 h

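Cells were grown in 96-well plates and exposed to each compound for 48 hours at five concentrations; endpoints were interpolated linearly between bracketing concentrations, or set to the highest concentration if not reached. The concentration for full growth arrest is given as TGI.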

`Cc1cc(C)c(C2=NO[C@@H]3[C@H]2C(=O)C=C2N(Cc4ccccc4)CCO[C@@]23O)c(C)c1`: the TGI in the assay on KM12 colon, in the assay on OVCAR-3 ovarian, in the assay on SNB-75 CNS, in the assay on RPMI-8226 leukemia, in the assay with A498 renal and in the assay with SF-295 CNS was above 100 µM in each case. The same molecule came in with a TGI in the assay with OVCAR-8 ovarian above 100 µM.
Regarding `COc1ccccc1-c1cc(=O)c2cccnc2[nH]1`, the TGI in the assay on KM12 colon, with M14 melanoma, in the assay with OVCAR-3 ovarian, in the assay on BT-549 breast, in the assay on RPMI-8226 leukemia and with A498 renal was above 100 µM in each case. The TGI in the assay with SF-295 CNS, in the assay with DU-145 prostate and in the assay with OVCAR-8 ovarian was above 100 µM each time.
As to `C[C@]12CC[C@H]3[C@@H](CCC4=C/C(=N/OCCN5CCCCC5)CC[C@@]43C)[C@@H]1CC[C@@H]2O`, the TGI in the assay with KM12 colon was determined as 21.8 µM; in the assay on M14 melanoma, 23.8 µM; in the assay on OVCAR-3 ovarian, 32 µM; in the assay with BT-549 breast it was 36 µM; with SNB-75 CNS, 22.4 µM; with RPMI-8226 leukemia, 24.9 µM. The TGI is 29.3 µM in the assay with SF-295 CNS, 63.5 µM with DU-145 prostate and above 100 µM with OVCAR-8 ovarian.
`CCOC(=O)/C(=C/c1cn(C(C)=O)c2ccccc12)P(=O)(OC)OC`: the TGI in the assay with M14 melanoma was above 100 µM; in the assay with OVCAR-3 ovarian, 64.8 µM; with SNB-75 CNS it was 60.1 µM; in the assay with RPMI-8226 leukemia, 50.7 µM; in the assay with A498 renal it was 52.4 µM; in the assay on SF-295 CNS, above 100 µM. The TGI with DU-145 prostate and in the assay with OVCAR-8 ovarian was above 100 µM each time.
With `COc1cc(-c2cc(OC)c(OC)c3ccc(Br)cc23)c2cc(Br)ccc2c1OC`, the TGI with M14 melanoma was found to be 44.7 µM; in the assay on OVCAR-3 ovarian, 46.5 µM; in the assay on RPMI-8226 leukemia, 51.7 µM; in the assay on A498 renal, 44.9 µM; in the assay with SF-295 CNS, 43.8 µM; with DU-145 prostate it was 93.4 µM.
Turning to `Cc1c(-c2ccccc2)oc(=O)c2ccccc12`, the TGI in the assay with KM12 colon amounted to 51.9 µM; in the assay on M14 melanoma, 51.2 µM; in the assay on OVCAR-3 ovarian, 41.8 µM; in the assay with BT-549 breast, 39.2 µM; in the assay with SNB-75 CNS, 31.1 µM; in the assay with RPMI-8226 leukemia, 36.5 µM. The TGI in the assay with SF-295 CNS was 40.2 µM; with DU-145 prostate it was above 100 µM; in the assay with OVCAR-8 ovarian, 93 µM.
Turning to `Cc1cc(C)nc(NS(=O)(=O)c2ccc(NC(=O)c3ccc4nc5ccccc5c(Nc5ccc(S(=O)(=O)N=C(N)N)cc5)c4c3)cc2)n1`, the TGI with KM12 colon, in the assay on M14 melanoma, with OVCAR-3 ovarian, in the assay with BT-549 breast, in the assay on SNB-75 CNS and with RPMI-8226 leukemia was above 100 µM each time. For the same molecule, the TGI in the assay with SF-295 CNS, with DU-145 prostate and in the assay on OVCAR-8 ovarian was above 100 µM in each case.
For the molecule `Cc1cc(C)n(C(C)(C(=O)Cc2ccccc2)n2nc(C)cc2C)n1`, the TGI with KM12 colon, in the assay on M14 melanoma, in the assay with OVCAR-3 ovarian, in the assay with RPMI-8226 leukemia, in the assay with A498 renal and in the assay on SF-295 CNS was above 100 µM each time. Further, the TGI in the assay on DU-145 prostate and in the assay with OVCAR-8 ovarian was above 100 µM throughout.
Turning to `Nc1ncnc2c1ncn2C1C(O)C=C(CO)C1O` (centres undefined), the TGI with KM12 colon, with OVCAR-3 ovarian, in the assay with RPMI-8226 leukemia, in the assay on SF-295 CNS and in the assay on OVCAR-8 ovarian was above 625 µM in each case.
Consider `CCN(CCCl)c1cc(CN(C)C)cc(NC(=O)c2ccc(C(=O)Nc3cccc(N(CCCl)NN)c3)cc2)c1`, for which the TGI in the assay on KM12 colon turned out to be 0.329 µM; with M14 melanoma, 0.294 µM; with SNB-75 CNS, 0.775 µM; in the assay on RPMI-8226 leukemia, 31.8 µM; with SF-295 CNS, 12.5 µM; with DU-145 prostate, 8.66 µM. In the assay with OVCAR-8 ovarian, this molecule returned a TGI of 0.942 µM.
In the case of `CN(C)CCCNC(=O)N/N=C/c1ccccn1`, the TGI in the assay on KM12 colon, in the assay with M14 melanoma, in the assay with SNB-75 CNS, with RPMI-8226 leukemia, in the assay on A498 renal and with SF-295 CNS was above 10 µM throughout. For the same molecule, the TGI in the assay with DU-145 prostate and in the assay on OVCAR-8 ovarian was above 10 µM each time.
As to `CN(CC(=O)O)c1ncc2c(n1)-c1ccccc1CC2`, the TGI with KM12 colon, with M14 melanoma, in the assay with OVCAR-3 ovarian, with SNB-75 CNS, with RPMI-8226 leukemia and with A498 renal was above 100 µM in each case. The TGI in the assay on SF-295 CNS, in the assay with DU-145 prostate and with OVCAR-8 ovarian was above 100 µM throughout.
As for `CCOC(=O)CCC(NC(=O)c1ccc(NCc2ccc3nc(OC)c(OC)nc3c2)c2ccccc12)C(=O)OCC` (centres undefined), the TGI in the assay on KM12 colon, with M14 melanoma, with OVCAR-3 ovarian, in the assay with BT-549 breast, in the assay on SNB-75 CNS and in the assay on A498 renal was above 100 µM throughout. Besides, the TGI in the assay with SF-295 CNS, in the assay with DU-145 prostate and in the assay on OVCAR-8 ovarian was above 100 µM each time.
Take `O=C(c1ccccc1)C1C(c2ccccc2[N+](=O)[O-])N1C1CCCCC1` (centres undefined): the TGI is 25.2 µM in the assay on KM12 colon; 23.9 µM in the assay with M14 melanoma; 7.82 µM in the assay with OVCAR-3 ovarian; 32.3 µM in the assay on BT-549 breast; 4.68 µM in the assay with RPMI-8226 leukemia; 30.5 µM with A498 renal. The results for the TGI with SF-295 CNS, in the assay on DU-145 prostate and in the assay on OVCAR-8 ovarian were 35.3 µM, 22.6 µM and 3.97 µM, respectively.
On to `COc1ccc(C=C2C(C)=NN(c3cccc(Cl)c3)C23C(Cl)C(=O)N3c2nc3ccccc3s2)cc1` (centres undefined), for which the TGI in the assay with KM12 colon is 34.8 µM; in the assay on M14 melanoma it was 44.5 µM; with OVCAR-3 ovarian, 42.9 µM; in the assay on RPMI-8226 leukemia, above 100 µM; in the assay on A498 renal, 34.8 µM; with SF-295 CNS, 50.9 µM. Also, the TGI was determined as 33 µM with DU-145 prostate and 42 µM in the assay with OVCAR-8 ovarian.
In the case of `Cc1c(C)c2c(c(N)c1C#N)C(=O)N(NC(=S)Nc1ccccc1)C2=O`, the TGI in the assay with KM12 colon, with M14 melanoma, in the assay with OVCAR-3 ovarian, in the assay with BT-549 breast, in the assay on SNB-75 CNS and in the assay on RPMI-8226 leukemia was above 100 µM throughout. Also, the TGI with SF-295 CNS, in the assay on DU-145 prostate and in the assay with OVCAR-8 ovarian was above 100 µM throughout.
